Reference: patent US9862713B2, “Substituted bicyclic heteroaryl compounds as RXR agonists” (CONNEXIOS LIFE SCIENCES PVT. LTD., priority 2014, dated 2018)

system: hRXR α, β, or γ; assay: Transactivation assay (RARE-Luc dual luciferase reporter in HEK-293 cells), activity relative to LG268; format: cell-based, human; settings: compound at 300 nM, 24 h; luciferase activity expressed relative to LG268
Method: HEK-293 cells (ATCC) were seeded one day prior to transfection. For assessing EC50 of activation of RXR isoforms 2 μg of hRXR α, β, or γ (OriGENE, USA) over-expressing vector, 1 μg of plasmid expressing firefly luciferase under RARE element (RARE-Luc) and 25 ng of renilla luciferase vector (QIAGEN, USA) were co-transfected using lipofectamine reagent. Post 24 h of transfection, cells were treated with different concentrations of RXR agonists (100 nM, 300 nM and 1 uM) for 24 h followed by estimation of luciferase activity using Dual Luciferase Reporter Assay System (Promega). Luciferase activity was normalized to that of renilla luciferase. The activities of the RXR compounds were expressed relative to LG268, a known RXR agonist.

| Structure (SMILES) | Activity at 300 nM |
| --- | --- |
| Cc1c(N(CC(C)C)c2ccc(C(=O)O)c(O)c2)sc2c1C(C)(C)CCC2(C)C [Compound 91, 2-hydroxy-4-[(2-methylpropyl) (3,4,4,7,7-pentamethyl-4,5,6,7-tetrahydro-1-benzothiophen-2-yl)amino]benzoic acid] | ***** (>0.6) |
| CC1(C)CCC(C)(C)c2sc(C(=O)c3ccc(C(=O)O)cn3)nc21 [Compound 95, 6-[(4,4,7,7-tetramethyl-4,5,6,7-tetrahydro-1,3-benzothiazol-2-yl)carbonyl]pyridine-3-carboxylic acid] | ** (>0.3 and <0.4) |
| CC1(C)CCC(C)(C)c2sc(N(c3ccc(C(=O)O)cn3)C3CCC3)nc21 [Compound 99, 6-[cyclobutyl(4,4,7,7-tetramethyl-4,5,6,7-tetrahydro-1,3-benzothiazol-2-yl)amino]pyridine-3-carboxylic acid] | ***** (>0.6) |
| CC(C)CN(c1ccc(C(=O)O)cc1)c1nc2c(s1)C(C)(C)CC(C)(O)C2(C)C (stereo not drawn) [Compound 88, 4-[(5-hydroxy-4,4,5,7,7-pentamethyl-4,5,6,7-tetrahydro-1,3-benzothiazol-2-yl) (2-methylpropyl)amino]benzoic acid] | ** (>0.3 and <0.4) |
| CC1(C)CCC(C)(C)c2sc(N(c3ccc(C(=O)O)cc3)c3ccc(C(=O)O)o3)nc21 [Compound 63, 5-[(4-carboxyphenyl) (4,4,7,7-tetramethyl-4,5,6,7-tetrahydro-1,3-benzothiazol-2-yl)amino]furan-2-carboxylic acid] | *** (>0.4 and <0.5) |
| COc1cc(N(CC(C)C)c2sc3c(c2C)C(C)(C)CCC3(C)C)ccc1C(=O)O [Compound 54, 2-methoxy-4-[(2-methylpropyl)(3,4,4,7,7-pentamethyl-4,5,6,7-tetrahydro-1-benzothiophen-2-yl)amino]benzoic acid] | *** (>0.4 and <0.5) |
| CC(C)CN(c1ccc(C(=O)O)cn1)c1nc2c(s1)C(C)(C)CCC2(C)C [Compound 64, 6-[(2-methylpropyl) (4,4,7,7-tetramethyl-4,5,6,7-tetrahydro-1,3-benzothiazol-2-yl)amino]pyridine-3-carboxylic acid] | ***** (>0.6) |
| COC1CC(C)(C)c2sc(N(CC3CC3)c3ccc(C(=O)O)cn3)nc2C1(C)C (stereo not drawn) [Compound 87, 6-[(cyclopropylmethyl) (5-methoxy-4,4,7,7-tetramethyl-4,5,6,7-tetrahydro-1,3-benzothiazol-2-yl)amino]pyridine-3-carboxylic acid] | ***** (>0.6) |
| CC1(C)CCC(C)(C)c2sc(N(Cc3ccccc3)c3ccc(C(=O)O)cn3)nc21 [Compound 66, 6-[benzyl(4,4,7,7-tetramethyl-4,5,6,7-tetrahydro-1,3-benzothiazol-2-yl)amino]pyridine-3-carboxylic acid] | ***** (>0.6) |
| COc1cc(C(=O)O)ccc1N(CC1CC1)c1nc2c(s1)C(C)(C)CCC2(C)C [Compound 71, 4-[(cyclopropylmethyl) (4,4,7,7-tetramethyl-4,5,6,7-tetrahydro-1,3-benzothiazol-2-yl)amino]-3-methoxybenzoic acid] | * (<0.3) |
| COc1cc(N(CC2CC2)c2nc3c(s2)C(C)(C)CCC3(C)C)ccc1C(=O)O [Compound 72] | * (<0.3) |
| CC(C)CN(c1nc2c(s1)C(C)(C)CCC2(C)C)c1ncc(C(=O)O)cc1Cl [Compound 69, 5-chloro-6-[(2-methylpropyl) (4,4,7,7-tetramethyl-4,5,6,7-tetrahydro-1,3-benzothiazol-2-yl)amino]pyridine-3-carboxylic acid] | * (<0.3) |
| Cc1c(N(CC(C)C)c2ccc(C(=O)O)c([N+](=O)[O-])c2)sc2c1C(C)(C)CCC2(C)C [Compound 51, 4-[(2-methylpropyl) (3,4,4,7,7-pentamethyl-4,5,6,7-tetrahydro-1-benzothiophen-2-yl)amino]-2-nitrobenzoic acid] | ***** (>0.6) |
| CC1(C)CCC(C)(C)c2sc(N(CC3CC3)c3ncc(C(=O)O)cc3Cl)nc21 [Compound 68] | * (<0.3) |
| Cc1cc(C(=O)O)ccc1N(CC(C)C)c1nc2c(s1)C(C)(C)CCC2(C)C [Compound 61, 3-methyl-4-[(2-methylpropyl) (4,4,7,7-tetramethyl-4,5,6,7-tetrahydro-1,3-benzothiazol-2-yl)amino]benzoic acid] | **** (>0.5 to <0.6) |
| CC1(C)CC(O)C(C)(C)c2nc(N(CC3CC3)c3ccc(C(=O)O)cn3)sc21 (stereo not drawn) [Compound 86, 6-[(cyclopropylmethyl) (5-hydroxy-4,4,7,7-tetramethyl-4,5,6,7-tetrahydro-1,3-benzothiazol-2-yl)amino]pyridine-3-carboxylic acid] | ***** (>0.6) |

same assay, conditions: compound at 1 µM, 24 h; luciferase activity expressed relative to LG268

| Structure (SMILES) | Activity at 1 µM |
| --- | --- |
| Cc1c(C(=O)c2ccc(C(=O)O)cn2)sc2c1C(C)(C)CCC2(C)C [Compound 5, 6-[(3,4,4,7,7-Pentamethyl-4,5,6,7-tetrahydro-1-benzothiophen-2-yl)carbonyl]pyridine-3-carboxylic acid] | ** (>0.7 and <0.8) |
| Cc1c(N(C)c2ccc(C(=O)O)cn2)sc2c1C(C)(C)CCC2(C)C [Compound 17, 6-[Methyl(3,4,4,7,7-pentamethyl-4,5,6,7-tetrahydro-1-benzothiophen-2-yl)amino]pyridine-3-carboxylic acid] | ***** (>1) |
| Cc1c(C2CC2c2ccc(C(=O)O)cc2)sc2c1C(C)(C)CCC2(C)C (stereo not drawn) [Compound 31, 4-[2-(3,4,4,7,7-Pentamethyl-4,5,6,7-tetrahydro-1-benzothiophen-2-yl)cyclopropyl]benzoic acid] | ** (>0.7 and <0.8) |
| Cc1c(C2(c3ccc(C(=O)O)cn3)CC2)sc2c1C(C)(C)CCC2(C)C [Compound 7, 6-[1-(3,4,4,7,7-Pentamethyl-4,5,6,7-tetrahydro-1-benzothiophen-2-yl)cyclopropyl]pyridine-3-carboxylic acid] | ***** (>1) |
| CC1(C)CCC(C)(C)c2sc(/C=C/c3ccc(C(=O)O)cn3)nc21 [Compound 50, 6-[(E)-2-(4,4,7,7-Tetramethyl-4,5,6,7-tetrahydro-1,3-benzothiazol-2-yl)ethenyl]pyridine-3-carboxylic acid] | * (<0.7) |
| Cc1c(N(c2ncc(C(=O)O)cn2)C2CC2)sc2c1C(C)(C)CCC2(C)C [Compound 24, 2-[Cyclopropyl(3,4,4,7,7-pentamethyl-4,5,6,7-tetrahydro-1-benzothiophen-2-yl)amino]pyrimidine-5-carboxylic acid] | *** (>0.8 and <0.9) |
| CC1(C)CCC(C)(C)c2sc(/C=C\c3ccc(C(=O)O)cc3)nc21 [Compound 49, 4-[(Z)-2-(4,4,7,7-Tetramethyl-4,5,6,7-tetrahydro-1,3-benzothiazol-2-yl)ethenyl]benzoic acid] | ***** (>1) |
| COc1ccc(/C=C/C(=O)O)cc1-c1sc2c(c1C)C(C)(C)CCC2(C)C [Compound 15, (2E)-3-[4-Methoxy-3-(3,4,4,7,7-pentamethyl-4,5,6,7-tetrahydro-1-benzothiophen-2-yl)phenyl]prop-2-enoic acid] | ** (>0.7 and <0.8) |
| Cc1c(N(c2ccc(C(=O)O)cc2)C2CC2)sc2c1C(C)(C)CCC2(C)C [Compound 10, 4-[Cyclopropyl(3,4,4,7,7-pentamethyl-4,5,6,7-tetrahydro-1-benzothiophen-2-yl)amino]benzoic acid] | ***** (>1) |
| CCN(c1ncc(C(=O)O)cn1)c1nc2c(s1)C(C)(C)CCC2(C)C [Compound 42, 2-[Ethyl(4,4,7,7-tetramethyl-4,5,6,7-tetrahydro-1,3-benzothiazol-2-yl)amino]pyrimidine-5-carboxylic acid] | ** (>0.7 and <0.8) |
| Cc1c(N(CC2CC2)c2ccc(C(=O)O)cc2)sc2c1C(C)(C)CCC2(C)C [Compound 11, 4-[(Cyclopropylmethyl) (3,4,4,7,7-pentamethyl-4,5,6,7-tetrahydro-1-benzothiophen-2-yl)amino]benzoic acid] | **** (>0.9 to <1) |
| Cc1c(N(C)c2ccc(C(=O)O)cn2)sc2c1C(C)(C)CCC2 [Compound 26, 6-[Methyl(3,4,4-trimethyl-4,5,6,7-tetrahydro-1-benzothiophen-2-yl)amino]pyridine-3-carboxylic acid] | * (<0.7) |
| Cc1c(N(c2ccc(C(=O)O)cn2)C(C)C)sc2c1C(C)(C)CCC2(C)C [Compound 21, 6-[(3,4,4,7,7-Pentamethyl-4,5,6,7-tetrahydro-1-benzothiophen-2-yl) (propan-2-yl)amino]pyridine-3-carboxylic acid] | ***** (>1) |
| CC1(C)CCC(C)(C)c2sc(N(CC3CC3)c3ncc(C(=O)O)cn3)nc21 [Compound 43, 2-[(Cyclopropylmethyl) (4,4,7,7-tetramethyl-4,5,6,7-tetrahydro-1,3-benzothiazol-2-yl)amino]pyrimidine-5-carboxylic acid] | * (<0.7) |
| Cc1nc2cc(C(=O)O)ccc2n1-c1nc2c(s1)C(C)(C)CCC2(C)C [Compound 44, 2-Methyl-1-(4,4,7,7-tetramethyl-4,5,6,7-tetrahydro-1,3-benzothiazol-2-yl)-1H-benzimidazole-5-carboxylic acid] | * (<0.7) |
| Cc1c(N(C)c2ncc(C(=O)O)cn2)sc2c1C(C)(C)CCC2(C)C [Compound 23, 2-[Methyl(3,4,4,7,7-pentamethyl-4,5,6,7-tetrahydro-1-benzothiophen-2-yl)amino]pyrimidine-5-carboxylic acid] | *** (>0.8 and <0.9) |
| CCN(c1ccc(C(=O)O)cn1)c1nc2c(s1)C(C)(C)CC(=O)C2(C)C [Compound 41, 6-[Ethyl(4,4,7,7-tetramethyl-5-oxo-4,5,6,7-tetrahydro-1,3-benzothiazol-2-yl)amino]pyridine-3-carboxylic acid] | * (<0.7) |
